Values after ≈ are worked out from the molar mass of the structure shown.
Tests used:
Type in all cases: functional
[1] = tested on: Capnocytophaga sputigena; experiment: Antimicrobial activity against Capnocytophaga sputigena CRBIP 17.39 after 2 days by agar dilution method; settings: CRBIP 17.39, 48 h
[2] = tested on: Capnocytophaga sputigena; experiment: Antimicrobial activity against Capnocytophaga sputigena CIP 104301T after 2 days by agar dilution method; settings: 48 h
[3] = tested on: Capnocytophaga sputigena; experiment: Antimicrobial activity against Capnocytophaga sputigena isolate NOR after 2 days by agar dilution method; settings: 48 h
[4] = tested on: Escherichia coli; experiment: Antimicrobial activity against Escherichia coli TOP10 after 2 days by agar dilution method; settings: TOP10, 48 h
[5] = tested on: Escherichia coli; experiment: Antimicrobial activity against Escherichia coli TOP10(pNOR-1) expressing CSP-1 gene after 2 days by agar dilution method; settings: 48 h

SMILES | MIC [1] [µg/mL] | MIC [2] [µg/mL] | MIC [3] [µg/mL] | MIC [4] [µg/mL] | MIC [5] [µg/mL]
CC1(C)S[C@@H]2[C@H](NC(=O)[C@H](N)c3ccc(O)cc3)C(=O)N2[C@H]1C(=O)O [AMOXICILLIN] | 0.25 (≈ 0.684 µM) | 0.25 (≈ 0.684 µM) | 256 (≈ 701 µM) | 2 (≈ 5.47 µM) | > 512
C[C@H]1[C@H](NC(=O)/C(=N\OC(C)(C)C(=O)O)c2csc(N)n2)C(=O)N1S(=O)(=O)O [AZTREONAM] | 0.125 (≈ 0.287 µM) | 0.125 (≈ 0.287 µM) | 0.125 (≈ 0.287 µM) | – | 16 (≈ 36.7 µM)
CO/N=C(\C(=O)N[C@@H]1C(=O)N2C(C(=O)[O-])=C(C[N+]3(C)CCCC3)CS[C@H]12)c1csc(N)n1 [CEFEPIME] | < 0.06 | < 0.06 | 0.125 (≈ 0.26 µM) | – | 4 (≈ 8.32 µM)
CO/N=C(\C(=O)N[C@@H]1C(=O)N2C(C(=O)O)=C(COC(C)=O)CS[C@H]12)c1csc(N)n1 [CEFOTAXIME] | < 0.06 | < 0.06 | 0.25 (≈ 0.549 µM) | < 0.06 | 8 (≈ 17.6 µM)
CO[C@@]1(NC(=O)Cc2cccs2)C(=O)N2C(C(=O)O)=C(COC(N)=O)CS[C@@H]21 [CEFOXITIN] | 0.5 (≈ 1.17 µM) | 0.5 (≈ 1.17 µM) | 0.5 (≈ 1.17 µM) | 2 (≈ 4.68 µM) | 2 (≈ 4.68 µM)
CC(C)(O/N=C(\C(=O)N[C@@H]1C(=O)N2C(C(=O)[O-])=C(C[n+]3ccccc3)CS[C@H]12)c1csc(N)n1)C(=O)O [CEFTAZIDIME] | < 0.06 | < 0.06 | 4 (≈ 7.32 µM) | < 0.06 | 0.5 (≈ 0.915 µM)
CO/N=C(\C(=O)N[C@@H]1C(=O)N2C(C(=O)O)=C(COC(N)=O)CS[C@H]12)c1ccco1 [CEFUROXIME] | 0.5 (≈ 1.18 µM) | 0.5 (≈ 1.18 µM) | 64 (≈ 151 µM) | 0.5 (≈ 1.18 µM) | 256 (≈ 603 µM)
CC(=O)OCC1=C(C(=O)O)N2C(=O)[C@@H](NC(=O)Cc3cccs3)[C@H]2SC1 [CEPHALOTHIN] | 0.125 (≈ 0.315 µM) | 0.25 (≈ 0.631 µM) | 64 (≈ 161 µM) | 4 (≈ 10.1 µM) | > 512
C[C@@H](O)[C@H]1C(=O)N2C(C(=O)O)=C(SCCNC=N)C[C@H]12 [IMIPENEM ANHYDROUS] | 0.06 (≈ 0.2 µM) | 0.06 (≈ 0.2 µM) | 0.06 (≈ 0.2 µM) | – | 0.06 (≈ 0.2 µM)
CCN1CCN(C(=O)N[C@@H](C(=O)N[C@@H]2C(=O)N3[C@@H]2SC(C)(C)[C@@H]3C(=O)O)c2ccccc2)C(=O)C1=O [PIPERACILLIN] | 0.25 (≈ 0.483 µM) | 0.25 (≈ 0.483 µM) | 0.5 (≈ 0.966 µM) | 1 (≈ 1.93 µM) | 16 (≈ 30.9 µM)
CC1(C)S[C@@H]2[C@H](NC(=O)[C@H](C(=O)O)c3ccsc3)C(=O)N2[C@H]1C(=O)O [TICARCILLIN] | 0.25 (≈ 0.65 µM) | 0.25 (≈ 0.65 µM) | 4 (≈ 10.4 µM) | 1 (≈ 2.6 µM) | > 512
